# Measured values published in patent publication EP0621342A1, “Reagent and kit for determining isoprenylating activity and inhibition thereof” (NEDERLANDSE ORGANISATIE VOOR …, priority 1993, dated 1994).
# Target: protein:farnesyltransferase (Oryctolagus cuniculus, UniProt G1SFC8+G1T7D9)
# Experiment: Inhibition of protein:farnesyl transferase activity in rabbit reticulocyte lysate (Sepharose-bound peptide, 3H-FPP)
# Format: biochemical
# Conditions: 80 pmol of pepAsep and pepBsep/5 µl beads, 0.7 µM ³H-FPP, 30 min at 37°C, read-out: IC₅₀-value
# Method: Commercially available rabbit reticulocyte lysate contains enzymes necessary for protein-isoprenylation, such as protein:farnesyl transferase activity (Vorburger, K., Kitten, G.T. and Nigg, E.G., EMBO J. 8 (1989) 4007-4013) and protein:geranylgeranyl transferase (Maltese, W.A. and Robishaw, J.D., J. Biol. Chem. 265 (1990) 18071-18074). Using pepAsep (example I) as substrate and pepBsep (example I) as control the assay of protein:farnesyl transferase activity was performed as follows: In 25 µl of a mixture containing 5 µl of pepAsep or pepBsep (both containing an equal quantity of peptide), 13 µl rabbit reticulocyte lysate (Promega), 0.5 mM MgCl₂, 1 mM DTT, 50 mM Tris-HCl (pH 7.4) and [³H]-farnesyl pyrophosphate (³H-FPP; concentration as indicated in the figures; specific radioactivity 15 Ci/mmol; ARC, USA) the incubation was performed at 37°C for 30 min with continuous shaking. […] The radioactivity bound to the Sepharose was measured in a Packard Tricarb liquid scintillation counter. […]
# 80 pmol of pepAsep and pepBsep/5 µl Sepharose were incubated for 30 minutes in the presence of 0.7 µM of [³H]-FPP and the indicated concentrations of the farnesyl pyrophosphate analogues FPPA1 and FPPA2 as mentioned in Example IV. The farnesylation activity was calculated as ³H-dpm bound to pepAsep minus the pepBsep-bound-dpm and expressed as percentage of control (without inhibitor). […]
row,SMILES,IC50 [µM]
1,"CC(C)=CCC/C(C)=C/CC/C(C)=C/COCP(=O)(O)CP(=O)(O)O [FPPA1, (E,E) -[Hydroxy-(3,7,11-trimethyl-2,6,10-dodecatrienyloxymethylphosphinyl)methyl]phosphonic acid]",5.26 ± 1.1
2,"CC(C)=CCCC(C)=CCCC(C)=CCP(=O)(O)OP(=O)(O)O [FPPA2, farnesyl phosphonophosphate]",0.29 ± 0.02
